Data reported in US20260216144A1, “TARGETING MB2 OF THE MYC ONCOGENE AND ITS INTERACTION WITH TRRAP IN CANCER” (priority 2019, published 2026).

Molecular target: MYC:TRRAP interaction (Homo sapiens, UniProt P01106+Q9Y4A5)
Assay: MYC:TRRAP in-cell luminescence complementation assay (NanoBiT; SmB-MYC 1-190 and TRRAP 2033-2283-LgB in HeLa cells)
Type: cell-based
Conditions: not given
Protocol: HeLa cells plated on Greiner 96-well TC-rated white plates with clear bottoms were used for the following measurements. Reverse transfections were carried out using LipoD293™ before cells were plated. A bluescript KS' plasmid (Addgene) was used as carrier DNA for transfections, and a pcDNA3.1 EGFP plasmid (ThermoFisher) was used as a fluorescence reporter. White light-reflecting film (USA Scientific) was used to cover the bottom of the plates for luminescence measurements. Black light-absorbing film was used to cover the top of the plates for fluorescence measurements. All measurements were taken on a SpectraMax i3 instrument (Molecular Devices).
Transfections were carried out with increasing DNA amounts (1-100 ng per well) of a CMV-driven LgB plasmid and SmB in excess or vice-versa. Background luminesce for the usable range and the amount of DNA needed for vast excess of LgB or SmB were noted. Next, complementation with vast excess either LgB or SmB was used to determine the expression of each of the indicated MYC and TRRAP constructs for a range of DNA amounts per well: 10-100 ng. An optimal ratio of DNA to equalize the expression of each MYC and TRRAP pair was calculated. Then, signal-to-noise ratios were calculated for the indicated MYC and TRRAP pairs, and the pair with the highest ratio was chosen. Finally, the chosen pair was used to determine the optimal DNA transfection mixture. It was determined to be 6.7 ng of a plasmid with a MYC construct, 60 ng of a plasmid with a TRRAP construct and 33.3 ng of the pcDNA 3.1 EGFP plasmid, for each well in a 96-well plate. Unless otherwise indicated, these were the ratios of DNA transfected for this type of assay.
HeLa cells were transfected as above using LipoD293™ with a mixture of SmB-MYC 1-190, TRRAP 2033-2283-LgB, and EGFP in CMV-driven plasmids at the same optimized ratio described above. Two days post-transfection, the media in each well was replaced with fresh media containing each compound from the NCI's sets at 25 μM. Cells were incubated for 2 h with each compound, and luminescence and fluorescence measurements were recorded for each well. Changes in luminescence were normalized to fluorescence. The following pre-plated compound sets were obtained from the NCI/DTP chemical repository and used for this screen:
These chemical sets were used to discover novel small-molecule inhibitors of the MYC:TRRAP complex. SmB-MYC 1-190, TRRAP 2033-2283-LgB, and EGFP were transfected into HeLa cells. Two days post-transfection, compounds were added to the media at 25 μM and cells were incubated for 2h. Luminescence and fluorescence were recorded for each well containing one of the compounds. Changes in luminescence measurements were normalized to fluorescence measurements.
Afterwards, only molecules that reduced luminescence levels to <50% RLU were considered. This set of 46 compounds were incubated at 10 μM with vector-expressing cells. Luminescence complementation was measured and repeated in triplicate measurements. In addition, HeLa cells expressing LgB and SmB alone were incubated with the same compounds to rule out potentially artificial results due to inhibition of luciferase or its complementation. Molecules that induces any significant reduction in luminescence (<0.6) during this control assay were not considered further. Of 2947 molecules, 17 were chosen for further testing and ordered from the NCI/DTP Open Chemical Repository. FIG. 16 describes these chosen compounds.
Using the luminescence assay above as a readout for the MYC:TRRAP interaction, we used a robotic liquid handler to evaluate 2987 additional compounds (25 μM). All primary hits were counter-screened for any activity against the luciferase enzyme itself and for any effects on the expression of the fusion proteins. We set a threshold of 50% inhibition to consider compounds further. Only 17 out of 2987 passed all these criteria (0.6%). […]

MYC:TRRAP interaction, sequence (P01106 16-205): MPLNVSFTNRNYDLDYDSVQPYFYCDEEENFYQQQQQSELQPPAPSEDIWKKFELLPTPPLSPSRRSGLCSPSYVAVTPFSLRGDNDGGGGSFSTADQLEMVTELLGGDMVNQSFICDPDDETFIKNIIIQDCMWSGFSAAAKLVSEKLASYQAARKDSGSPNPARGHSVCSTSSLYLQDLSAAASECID
MYC:TRRAP interaction, sequence (Q9Y4A5 2051-2301): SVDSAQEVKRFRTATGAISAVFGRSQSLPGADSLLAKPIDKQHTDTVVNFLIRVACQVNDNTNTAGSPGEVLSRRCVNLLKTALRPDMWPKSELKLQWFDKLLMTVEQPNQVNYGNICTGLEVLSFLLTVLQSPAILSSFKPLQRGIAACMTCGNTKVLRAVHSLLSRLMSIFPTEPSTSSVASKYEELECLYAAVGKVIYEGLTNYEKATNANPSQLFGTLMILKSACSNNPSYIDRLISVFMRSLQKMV

| Structure (SMILES) | % Inhibition 10 uM [%] |
| --- | --- |
| CC[C@H](C)[C@@H]1/N=C(\O)[C@@H](NC(=O)c2c3nc4c(C(=O)N[C@@H]5/C(O)=N/[C@@H](C(C)C)C(=O)N6CCC[C@H]6C(=O)N(C)CC(=O)N(C)[C@@H](C(C)C)C(=O)O[C@@H]5C)ccc(C)c4oc-3c(C)c(=O)c2N)[C@@H](C)OC(=O)[C@H](C(C)C)N(C)C(=O)CN(C)C(=O)[C@@H]2CCCN2C1=O [Compound 20, 2-amino-1-N-[(3S,6S,7R,10S, 16S)-3-[(2S)-butan-2-yl]-7,11,14-trimethyl-2,5,9,12,15-pentaoxo-10-propan-2-yl-8-oxa-1,4,11,14-tetrazabicyclo [14.3.0]nonadecan-6-yl]-4,6-dimethyl-3-oxo-9-N-[(3S,6S,7R, 10S,16S)-7,11,14-trimethyl-2,5,9,12,15-pentaoxo-3,10-di(propan-2-yl)-8-oxa-1,4,11,14-tetrazabicyclo [14.3.0]nonadecan-6-yl]phenoxazine-1,9-dicarboxamide] | 41.4 |

Same assay, conditions: Table 1; 46 primary hits at 10 uM; HeLa cells; triplicate measurements

| Structure (SMILES) | % Inhibition 10 uM [%] |
| --- | --- |
| CN(C)c1ccc(C=C2C=C(c3ccc4c(c3)CCCC4)OC2=O)cc1 (stereo in doubt) [Compound 46, (3Z)-3-[[4-(dimethylamino)phenyl]methylidene]-5-(5,6,7,8-tetrahydro-naphthalen-2-yl)furan-2-one] | 96.48 |
| Nc1ccc(N=Nc2ccccc2Cl)c(N)n1 [Compound 1, 3-[(2-chlorophenyl)diazenyl] pyridine-2,6-diamine] | 14.38 |
| Cc1cc(O)c(C(C)C)cc1C1(c2cc(C(C)C)c(O)cc2C)OC(=O)c2ccccc21 [Compound 2, 3,3-bis(4-hydroxy-2-methyl-5-propan-2-ylphenyl)-2-benzofuran-1-one] | 11.16 |
| Nc1ccc(/N=N/c2ccccc2)c2ccccc12 [Compound 3, 4-phenyldiazenylnaph-thalen-1-amine] | 22.41 |
| N=c1ccc(/N=N/c2ccc(O)cc2)c(N)[nH]1 [Compound 4, 4-[(2,6-diaminopyridin-3-yl)diazenyl]phenol] | 30.35 |
| Cc1ccc(NC(=O)c2cc3ccccc3c(/N=N/c3ccccc3O)c2O)c(C)c1 [Compound 5, N-(2,4-dimethylphenyl)-3-hydroxy-4-[(2-hydroxyphenyl)diazenyl] naphthalene-2-carboxamide] | 37.24 |
| COc1ccc(OC)c(-c2cc(=O)c3c(OC)c(OC)c(OC)c(OC)c3o2)c1 [Compound 6, 2-(2,5-dimethoxyphenyl)-5,6,7,8-tetramethoxy-chromen-4-one] | 33.66 |
| COC(=O)c1c[nH]c2c1-c1cc(C(=O)OCc3ccccc3)n(S(=O)(=O)c3ccc(C)cc3)c1C(=O)C2=O [Compound 7, 2-O-benzyl 8-O-methyl 3-(4-methylphenyl) sulfonyl-4,5-dioxo-6H-pyrrolo[3,2-e]indole-2,8-dicarboxylate] | 16.02 |
| COC(=O)c1cc(-c2c[nH]cc2C(=O)OCc2ccccc2)cn1S(=O)(=O)c1ccc(C)cc1 [Compound 8, methyl 1-(4-methylphenyl) sulfonyl-4-(4-phenylmethoxycar-bonyl-1H-pyrrol-3-yl)pyrrole-2-carboxylate] | 33.32 |
| Cc1ccc(Cl)cc1NC(=O)c1cc2ccccc2cc1O [Compound 9, N-(5-chloro-2-methylphenyl)-3-hydroxy-naphthalene-2-carboxamide] | 48.59 |
| Cc1cc(N(C)C)ccc1/N=N/c1ccc2ncccc2c1 [Compound 12, N,N,3-trimethyl-4-(quinolin-6-yldiazenyl)aniline] | 58.86 |
| C/N=c1\sc2c(n1C)C(=O)c1ccccc1C2=O [Compound 13, 3-methyl-2-methyliminobenzo [f][1,3] benzothiazole-4,9-dione] | 68.66 |
| COC1=C(N)C(=O)c2nc(-c3nc(C(=O)O)c(C)c(-c4ccc(OC)c(OC)c4O)c3N)ccc2C1=O [Compound 14, 5-amino-6-(7-amino-6-methoxy-5,8-dioxoquinolin-2-yl)-4-(2-hydroxy-3,4-dimethoxyphenyl)-3-methylpyridine-2-carboxylic acid] | 40.78 |
| CCN(CC)Cc1cc(/N=N/c2c(O)ccc3c(/N=N/c4ccc(O)c(CN(CC)CC)c4)c(O)ccc23)ccc1O.Cl [Compound 15, 1,5-bis[[3-(diethyl-aminomethyl)-4-hydroxyphenyl]diazenyl] naphthalene-2,6-diol; hydrochloride] | 57.02 |
| Cc1nc(/N=N/c2ccccc2)[nH]c1/N=N/c1ccccc1 [Compound 16, (5-methyl-2-phenyldiazenyl-1H-imidazol-4-yl)-phenyldiazene] | 62.4 |
| CC(=O)OC(C)C1C2=C(C(=O)C[C@]1(C)O)C(=O)c1c(ccc(-c3ccc4c(c3O)C(=O)C3=C(C4=O)C(C(C)OC(C)=O)[C@@](C)(O)CC3=O)c1O)C2=O (stereo partly drawn) [Compound 17, 1-[(2S)-6-[(6S)-5-(1-acetyloxyethyl)-1,6-dihydroxy-6-methyl-8,9,10-trioxo-5,7-dihydroanthracen-2-yl]-2,5-dihydroxy-2-methyl-4,9,10-trioxo-1,3-dihydroanthracen-1-yl]ethyl acetate] | 46.81 |
| Cc1ccc2c(c1)C(=C(C#N)C#N)CCN2 [Compound 18, 2-(6-methyl-2,3-dihydro-1H-quinolin-4-ylidene)propanedi-nitrile] | 57.21 |
| N#C/C(S)=N/c1ccc(F)cc1 [Compound 19, 1-cyano-N-(4-fluorophenyl) methanethioamide] | 92.01 |
| COC(=O)c1cc2c(n1S(=O)(=O)c1ccc(C)cc1)C(=O)C(=O)c1[nH]cc(C(=O)OCc3ccccc3)c1-2 [Compound 21, 8-O-benzyl 2-O-methyl 3-(4-methylphenyl) sulfonyl-4,5-dioxo-6H-pyrrolo[3,2-e]indole-2,8-dicarboxylate] | 39.88 |
| COc1cc(O)c2c(c1)C(=O)c1cc3c(c(O)c1C2=O)C(OC1OC(C)C(O)C(O)C1OC)C(OC)C(C)(O)C3=O (stereo not shown) [Compound 22, 4-(4,5-dihydroxy-3-methoxy-6-methyloxan-2-yl)oxy-2,5,7-trihydroxy-3,9-dimethoxy-2-methyl-3,4-dihydrotetracene-1,6,11-trione] | 52.48 |
| COc1c2c(c(CC=C(C)C)c3oc(=O)c(-c4ccc(O)cc4)c(O)c13)OC(C)(C)C=C2 [Compound 24, 6-hydroxy-7-(4-hydroxyphenyl)-5-methoxy-2,2-dimethyl-10-(3-methylbut-2-enyl)pyrano[3,2-g]chromen-8-one] | 41.01 |
| CC(C)(C)c1cc(C=C(C#N)C#N)cc(C(C)(C)C)c1O [Compound 25, 2-[(3,5-ditert-butyl-4-hydroxyphenyl)methylidene] propanedinitrile] | 42.52 |

Same assay, conditions: Table 1; 46 primary hits at 10 uM; HeLa cells; triplicate measurements; 10 µM

| Structure (SMILES) | % Inhibition 10 uM [%] |
| --- | --- |
| N=C1C=C(N)C(=O)c2nc(O)ccc21 [Compound 11, 7-amino-5-imino-1H-quinoline-2,8-dione] | 46.89 |
| COC(=O)c1nc(-c2ccc3c(n2)C(=O)C(N)=C(OC)C3=O)c(N)c(-c2ccc(OC)c(OC)c2O)c1C [Compound 23, methyl 5-amino-6-(7-amino-6-methoxy-5,8-dioxoquinolin-2-yl)-4-(2-hydroxy-3,4-dimethoxyphenyl)-3-methylpyridine-2-carboxylate] | 50.17 |

Same assay, conditions: Table 1; 46 primary hits at 10 uM; HeLa cells; triplicate measurements; listed as 29, 10 µM

| Structure (SMILES) | % Inhibition 10 uM [%] |
| --- | --- |
| COC(=O)c1nc(-c2ccc3c(n2)C(=O)C(N)=C(OC)C3=O)c(N)c(-c2ccc(OC)c(OC)c2O)c1C [Compound 23, methyl 5-amino-6-(7-amino-6-methoxy-5,8-dioxoquinolin-2-yl)-4-(2-hydroxy-3,4-dimethoxyphenyl)-3-methylpyridine-2-carboxylate] | 60.1 |

Same assay, conditions: Table 1; 46 primary hits at 10 uM; HeLa cells; triplicate measurements; listed as 43, 10 µM

| Structure (SMILES) | % Inhibition 10 uM [%] |
| --- | --- |
| N=C1C=C(N)C(=O)c2nc(O)ccc21 [Compound 11, 7-amino-5-imino-1H-quinoline-2,8-dione] | 57.34 |

Same assay, conditions: Table 2; compounds with >80% similarity to compound 10 (NSC657456); 10 uM

| Structure (SMILES) | % Inhibition 10 uM [%] |
| --- | --- |
| N#CC(=C/N=C(S)/N=N/c1c(O)[nH]c2ccccc12)c1nc2ccccc2s1 (stereo in doubt) [Compound 1030, 1-[(E)-2-(1,3-benzothiazol-2-yl)-2-cyanoethenyl]-3-[(2-hydroxy-1H-indol-3-yl)imino] thiourea] | 48.26 |
